In patent publication US20130281544A1, “HEPATOPROTECTANT ACTIVITY OF GARCINOL” (priority 2010, published 2013):
Values after ≈ are worked out from the molar mass of the structure shown.

Columns and labels:
mice = conditions: mouse, in vivo, po
Text: The parameters studied and observations recorded are included in Table 1. (OECD Guidelines for Testing of Chemicals. Guideline 423, Acute Oral Toxicity—Acute Toxic Class Method, Adopted, (1996). Organization for Economic Cooperation and Development).

[1] = test system: paracetamol induced liver damage in rats; assay: Serum enzymes ALT, AST, ALP in paracetamol (APAP) induced liver damage; assay type: in vivo, Male Wistar Rats; conditions: for ALP percent change / ALT percent change / AST percent change / ALP / ALT / AST: serum; for ALP / ALT / AST: Mean ± SE
Method: Doses of Garcinol (GC) used for the study: 1.25, 2.5, 5, 10 mg/kg p.o.
Standard drug: Silymarin (50 mg/kg) p.o.
Experimental animals orally received paracetamol (400 mg/kg body weight) for seven days. The animals from drug treated group received 400 mg/kg body weight of paracetamol dissolved in water orally along with graded doses of test drug Garcinol for seven days. The standard group animals received 50 mg/kg body weight of standard drug silymarin and 400 mg/kg body weight of paracetamol for seven days and served as standard control. [N. Kanchana and A. Mohamed Sadiq, Hepatoprotective effect of Plumbago zeylanica on paracetamol induced liver toxicity in rats, Int J Pharm Pharm Sci, Vol 3, Issue 1, 151-154 (2011)].
Blood was collected from the retro-orbital plexus of experimental animals and no anti-coagulant was added. Blood was made to stand at room temperature for 1 hour. It was then centrifuged and clear serum was separated. The serum was then stored for analysis. Reference: (Magari et al., 2004).
(ASPARTATE AMINOTRANSFERASE and ALANINE AMINOTRANSFERASE), Reference: Ritman S, Frankel S, (1957). A colorimeteric method for the determination of serum glutamic oxaloacetic and glutamic pyruvic transaminases. American Journal of Clinical Pathology; 28: 56-63.
0.2 ml of serum, collected from test and control samples, was mixed with 1.0 ml of buffer solution and incubated for 60 min at 37° C. in a water bath. After the addition of 1.0 ml of chromogen solution, the samples were kept at room temperature for 20 minutes for the reaction to proceed and 10 ml NaOH was added. The optical density was red at 546 nm after 5 min. To the blank, serum was added after the addition of chromogen solution.
(ALKALINE PHOSPHATASE), Reference: Klaus Walter and Schutt C. (1974). Acid and alkaline phosphatase in serum. In: Methods of Enzymatic Analysis. Eds. Hans Ulrich Bergmeyer, Verlag ChemieWeinheim, Academic press, Inc. New York, 2nd Edition, Vol. 2, pp. 855-64.
Alkaline phosphatase activity measurement is based on the ability of the enzyme to hydrolyze p-nitrophenol phosphate under alkaline conditions. The cleaved product p-nitrophenol is yellow in alkaline solution and is measured at 400-420 nm (Klaus and Schutt, 1974). 2.0 ml of buffered substrate was taken in the tubes ‘Test’ ‘Control’ and ‘Blank’ followed by addition of serum and distilled water (0.1 ml) in ‘Test’ and ‘Blank’ respectively and incubated in a water bath for 30 minutes at 25° C. After incubation sodium hydroxide was added (0.25 N, 2 ml) to all the tubes, which was followed by serum (0.1 ml) to the tubes marked ‘Control’. The yellow colour formed was measured spectrophotometrically against blank at 410 nm. […]

in vitro = assay type: cell-based; conditions: human
[2] = test system: Hep G2 liver cancer cell line; assay: in vitro; assay type: cell-based

In the case of C=C(C)[C@@H](CC=C(C)C)C[C@@]12C[C@@H](CC=C(C)C)C(C)(C)[C@@](CC=C(C)C)(C(=O)C(C(=O)c3ccc(O)c(O)c3)=C1O)C2=O [Garcinol], the Aggressiveness (mice) is reported as “Aggressiveness: Nil”, the Atexia (mice) is reported as “Atexia: Nil” and the Blanching (mice) is reported as “Blanching: Nil”. The Clonic convulsions (mice) was “Clonic convulsions: Nil”, the Corneal (mice) was “Corneal: No Effect” and the Cyanosis (mice) was “Cyanosis: Nil”. The Diarrhea (mice) was “Diarrhea: Nil”, the Excitation (mice) was “Excitation: Nil” and the Fearful (mice) was “Fearful: Nil”. For the same compound, the “Fecal Output” value (mice) was “Fecal Output: Normal”, the “General Locomotor Activity” value (mice) was “General Locomotor Activity: Normal” and the “General Movement” value (mice) was “General Movement: Normal”. The Hyperemia (mice) was “Hyperemia: Nil”, the “Motor Activity” value (mice) was “Motor Activity: Normal” and the “Muscular Weakness” value (mice) was “Muscular Weakness: Nil”. For the same compound, the Passive (mice) was “Passive: Nil”, the Pilo erection (mice) was “Pilo erection: Nil” and the Pinnal (mice) was “Pinnal: No Effect”. For the same compound, the “Respiration Depth” value (mice) was “Respiration Depth: Normal”, the “Respiration Rate” value (mice) was “Respiration Rate: Normal” and the Respiration rate (mice) was “Respiration rate: Normal”. The Salivation (mice) was “Salivation: Normal”, the Tremors (mice) was “Tremors: Nil” and the “Urine Output” value (mice) was “Urine Output: Normal”. For the same compound, the “Average Protection” value ([1]; 1.25 mg/kg p.o.) was 13.06%, the “Average Protection” value ([1]; 2.50 mg/kg p.o.) was 21.51% and the “Average Protection” value ([1]; 5.00 mg/kg p.o.) was 36.31%. The “Average Protection” value ([1]; 10.00 mg/kg p.o.) was 33.22%, the ALP percent change ([1]; 1.25 mg/kg p.o.) was “(8.21) %” and the ALT percent change ([1]; 1.25 mg/kg p.o.) was “(21.69) %”. For the same compound, the AST percent change ([1]; 1.25 mg/kg p.o.) was “(9.30) %”, the ALP ([1]; 1.25 mg/kg p.o.) was 37.21 ± 3.44 μmol min/lt and the ALT ([1]; 1.25 mg/kg p.o.) was 862.97 ± 53.38 μmol min/lt. For the same compound, the AST ([1]; 1.25 mg/kg p.o.) was 761.61 ± 43.96 μmol min/lt, the ALP percent change ([1]; 2.50 mg/kg p.o.) was “(15.44) %” and the ALT percent change ([1]; 2.50 mg/kg p.o.) was “(26.62) %”. The AST percent change ([1]; 2.50 mg/kg p.o.) was “(22.49) %”, the ALP ([1]; 2.50 mg/kg p.o.) was 34.28 ± 1.98 μmol min/lt and the ALT ([1]; 2.50 mg/kg p.o.) was 808.64 ± 38.55 μmol min/lt. The AST ([1]; 2.50 mg/kg p.o.) was 650.88 ± 35.84 μmol min/lt, the ALP percent change ([1]; 5.00 mg/kg p.o.) was “(24.17) %” and the ALT percent change ([1]; 5.00 mg/kg p.o.) was “(39.96) %”. For the same compound, the AST percent change ([1]; 5.00 mg/kg p.o.) was “(44.81) %”, the ALP ([1]; 5.00 mg/kg p.o.) was 30.74 ± 2.05 μmol min/lt and the ALT ([1]; 5.00 mg/kg p.o.) was 661.67 ± 51.40 μmol min/lt. The AST ([1]; 5.00 mg/kg p.o.) was 463.41 ± 38.56 μmol min/lt, the ALP percent change ([1]; 10.00 mg/kg p.o.) was “(17.11) %” and the ALT percent change ([1]; 10.00 mg/kg p.o.) was “(46.44) %”. For the same compound, the AST percent change ([1]; 10.00 mg/kg p.o.) was “(36.12) %”, the ALP ([1]; 10.00 mg/kg p.o.) was 33.60 ± 1.93 μmol min/lt and the ALT ([1]; 10.00 mg/kg p.o.) was 590.22 ± 50.98 μmol min/lt. For the same compound, the AST ([1]; 10.00 mg/kg p.o.) was 536.39 ± 44.13 μmol min/lt, the cytotoxicity at 0.78 μg/ml (in vitro) was -3.81% and the cytotoxicity at 1.56 μg/ml (in vitro) was -12.1%. The cytotoxicity at 3.13 μg/ml (in vitro) was -14.7%, the cytotoxicity at 6.25 μg/ml (in vitro) was -1.94% and the cytotoxicity at 12.5 μg/ml (in vitro) was 35.8%. For the same compound, the cytotoxicity at 25 μg/ml (in vitro) was 60.9%, the cytotoxicity at 50 μg/ml (in vitro) was 83.2% and the cytotoxicity at 100 μg/ml (in vitro) was 83.4%. The cytotoxicity at 200 μg/ml (in vitro) was 79.5%, the “effective concentration for mammalian hepatocyte protection” value [2] was 0.78 to 6.25 µg/mL and the IC50 ([2]; Homo sapiens, HepG2, HEP G2 cells, MTT, read-out: Hepatoprotective activity in HEP G2 cells IC50) was 13.3 µg/mL (≈ 22.1 µM).
